The record followed here is PMC5062570 (Nature Communications, 2016).

Where “and” joins values, the source holds several entries; their conditions need not be identical. Equal entries are not always repeated.

One data set addresses BACE1 (Homo sapiens, UniProt P56817). Description: BACE1 purified enzyme fluorescence polarization assay. The data set is classed as biochemical. On the set-up: His (C); made in house; host or cells: CHO-K1. To be noted: purified human enzyme, fluorescence polarization, peptide substrate.
Data set [1] addresses T1, CatD (Homo sapiens, UniProt P07339). Briefly: CatD purified enzyme fluorescence polarization assay. The settings on record: purified human enzyme, fluorescence polarization, substrate-based. The data set is classed as biochemical. On the set-up: final maturation into a non-covalently associated heavy chain and light chain; purchased Sigma C8696; host or cells: human liver.
Target sequence in this assay (P07339 65-162 limits assumed): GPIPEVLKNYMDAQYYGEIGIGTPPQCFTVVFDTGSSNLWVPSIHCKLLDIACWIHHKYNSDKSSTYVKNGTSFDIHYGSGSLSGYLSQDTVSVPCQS
Target sequence in this assay (P07339 169-412 limits assumed): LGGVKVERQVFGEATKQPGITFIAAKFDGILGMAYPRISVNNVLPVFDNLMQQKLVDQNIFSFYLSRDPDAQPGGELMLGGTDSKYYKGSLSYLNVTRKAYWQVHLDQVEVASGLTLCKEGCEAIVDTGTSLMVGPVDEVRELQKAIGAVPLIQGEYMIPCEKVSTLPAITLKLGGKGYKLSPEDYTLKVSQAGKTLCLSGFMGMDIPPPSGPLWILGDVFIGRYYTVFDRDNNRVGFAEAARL

The target in data set [2] is T1, CatD. Briefly: CatD cellular assay (competition of PF-7802 photolabelling in live ARPE-19 cells). The data set is classed as cell-based. Also on record: host or cells: ARPE-19. To be noted: for CatD potency increase in live cells: CatD enzyme IC50 versus CatD cellular IC50; for IC50: live ARPE-19 cells, PF-7802 photoprobe 100 nM, 30 min.
Target sequence in this assay (P07339 169-412 limits assumed): as above
Target sequence in this assay (P07339 65-162 limits assumed): as the sequence (P07339 65-162 limits assumed) above
The next data set addresses T2, BACE2 (Homo sapiens, UniProt Q9Y5Z0).
T2 construct: purchased R&D Systems 4097-AS
T2 sequence (Q9Y5Z0 63-518): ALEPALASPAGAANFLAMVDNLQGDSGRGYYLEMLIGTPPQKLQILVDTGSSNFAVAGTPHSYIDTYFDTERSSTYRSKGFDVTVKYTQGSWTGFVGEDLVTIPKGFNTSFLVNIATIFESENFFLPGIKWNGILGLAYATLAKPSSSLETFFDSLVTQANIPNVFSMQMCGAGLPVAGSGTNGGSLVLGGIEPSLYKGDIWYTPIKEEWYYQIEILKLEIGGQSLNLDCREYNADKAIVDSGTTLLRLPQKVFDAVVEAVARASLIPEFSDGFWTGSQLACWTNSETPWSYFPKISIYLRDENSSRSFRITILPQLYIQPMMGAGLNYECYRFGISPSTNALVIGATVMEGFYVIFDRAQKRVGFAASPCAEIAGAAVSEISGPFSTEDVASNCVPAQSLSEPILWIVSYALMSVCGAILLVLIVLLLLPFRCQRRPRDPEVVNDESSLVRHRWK
Briefly: BACE2 purified enzyme fluorescence polarization assay. The data set is classed as biochemical. The settings on record: purified human enzyme, fluorescence polarization. The method, boiled down: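 Purified enzymes incubated with compound (1% DMSO, 37 °C) and 150 nM biotinylated peptide substrate in 100 mM NaOAc pH 4.5. Reaction stopped with 1.5 μM streptavidin; inhibition read by fluorescence polarization. BACE2 0.5 nM, BACE1 substrate, 1 h; CatE 1.0 nM, CatD substrate, 1.5 h.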

Data set [3] can be described thus: pKa determination by multiplexed capillary electrophoresis. The data set is classed as physicochemical. To be noted: aqueous buffers. The method in brief:
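Effective mobility relative to a DMSO neutral marker was measured by multiplexed capillary electrophoresis with UV detection at 24 points across pH 1.7–11.2 in aqueous buffers. pKa was taken from ionization curves of mobility versus pH; method average absolute error 0.12.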

BACE1, sequence (P56817 46-457): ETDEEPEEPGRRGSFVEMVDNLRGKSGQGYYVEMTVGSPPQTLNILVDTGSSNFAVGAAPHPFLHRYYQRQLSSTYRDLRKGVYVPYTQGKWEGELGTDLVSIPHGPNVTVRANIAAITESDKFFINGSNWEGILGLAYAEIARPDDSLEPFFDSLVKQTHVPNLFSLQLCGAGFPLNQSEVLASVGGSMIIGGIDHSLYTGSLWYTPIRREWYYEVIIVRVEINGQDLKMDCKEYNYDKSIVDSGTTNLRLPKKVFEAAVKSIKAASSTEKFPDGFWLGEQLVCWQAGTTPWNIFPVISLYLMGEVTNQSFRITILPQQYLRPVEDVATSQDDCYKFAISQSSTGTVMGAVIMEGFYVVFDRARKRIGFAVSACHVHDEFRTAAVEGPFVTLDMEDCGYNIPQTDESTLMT

The IC50 is the concentration at which inhibition is half-maximal. For orientation: pKa means the negative logarithm of the acid dissociation constant. `Cc1cc([C@H]2C[C@H]3[C@@H](CF)SC(N)=N[C@@]3(c3ccc(F)cc3F)CO2)on1` [PF-3195]: the IC50 against BACE1 was found to be 62 nM; against CatD [1] it was 9000 nM; on CatD [2] it was 540 nM; against BACE2, 150 nM. The “CatD potency increase in live cells” value at CatD [2] stood at 17 x. Besides, the pKa in data set [3] stood at 7.0.
On to `Cc1cc([C@H]2C[C@H]3[C@@H](C)SC(N)=N[C@@]3(c3ccc(F)cc3F)CO2)on1` [PF-9283], for which the IC50 at BACE1 was 74 nM; on CatD [1] it was 12000 nM; at CatD [2], 140 nM and < 300 nM; against BACE2, 140 nM. At CatD [2], the “CatD potency difference between cell-free enzyme and cellular assays” value is listed as around 86 fold. Also, the “CatD potency increase in live cells” value on CatD [2] is on record as 86 x. In addition, at CatD [2] (cellular inhibition of BACE1 cleavage of APP versus inhibition of CatD labelling by PF-7802), the “BACE1 selectivity over CatD in cells” value turned out to be 23 fold. For the same compound, the pKa in data set [3] came to 7.7.
